Assay results as given in US20150133397A1, “METHOD OF REDUCING FASTING INSULIN LEVELS IN MTHFR GENE DEFICIENT SUBJECTS WITH NORMAL TO SLIGHTLY ELEVATED HEMOGLOBIN A1C” (priority 2013, published 2015).
Read-outs that look alike come from different tables or passages of the source.

Legend:
[1] = MTHFR677 tt, retested 6 months later
Excerpt: (§1) The test subject was given a fasting insulin test.

[2] = MTHFR677 tt, retested 6 months later; remark: listed apart in the source
Excerpt: The HbA1C test is a common blood test used to diagnose type 1 and type 2 diabetes and then to gauge how well the subject is managing diabetes or the subjects risk of becoming diabetic. The A1C test result reflects the subjects average blood sugar level for the past two to three months. Specifically, the A1C test measures what percentage of the subject's hemoglobin is coated with sugar (glycated). […] According to the American Diabetes Association guidelines a HbA1C of between 4 and 5.6% falls within normal parameters, HbA1C between 5.7 and 6.4% are considered slightly elevated and indicate a prediabetic state as where HbA1C of greater than 6.5% is considered diabetic.
as §1

`CN1c2c([nH]c(N)nc2=O)NC[C@@H]1CNc1ccc(C(=O)N[C@@H](CCC(=O)O)C(=O)O)cc1` [L-methylfolate] gave a fasting insulin level ([1]; Example 1: person, 3 mgs L-methylfolate with 2 mgs methyl B12 once daily, before treatment 40 μU/ml) of 9 μU/ml, a fasting insulin level ([1]; Example 2: person, 15 mgs L-methylfolate with 2 mgs methyl B12 once daily, before treatment 100 μU/ml) of 11 μU/ml and a HbA1C ([2]; Example 1: person, 3 mgs L-methylfolate with 2 mgs methyl B12 once daily, before treatment 4.9%) of 4.9%. It also gave a HbA1C ([2]; Example 2: person, 15 mgs L-methylfolate with 2 mgs methyl B12 once daily, before treatment 5.3%) of 5.3%.
